The target of data set [1] is T1, Gonadotropin-releasing hormone receptor (Homo sapiens, UniProt P30968).
T1 sequence (P30968 whole entry): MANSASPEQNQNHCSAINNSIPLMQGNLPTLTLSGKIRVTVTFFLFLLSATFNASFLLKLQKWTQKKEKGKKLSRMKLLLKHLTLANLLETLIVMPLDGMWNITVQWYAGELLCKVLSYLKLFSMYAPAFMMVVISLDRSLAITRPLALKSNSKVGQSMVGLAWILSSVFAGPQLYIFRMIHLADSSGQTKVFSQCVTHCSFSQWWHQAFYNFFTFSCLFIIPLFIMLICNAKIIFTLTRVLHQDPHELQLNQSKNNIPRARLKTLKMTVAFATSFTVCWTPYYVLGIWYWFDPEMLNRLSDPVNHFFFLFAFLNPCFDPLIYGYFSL
The data set is described as follows: Displacement of [125I]Pro-N-Et-GnRH from human cloned GnRH receptor expressed in HEK cells. The class given is cell-based, HEK293.

The target of the next data set is Cytochrome P450 3A4 (Homo sapiens, UniProt P08684). The data set is described as follows: Inhibition of recombinant CYP3A4 by microtiter plate-based fluorimetric assay. The class given is ADME.
Chain of Cytochrome P450 3A4 (P08684 whole entry): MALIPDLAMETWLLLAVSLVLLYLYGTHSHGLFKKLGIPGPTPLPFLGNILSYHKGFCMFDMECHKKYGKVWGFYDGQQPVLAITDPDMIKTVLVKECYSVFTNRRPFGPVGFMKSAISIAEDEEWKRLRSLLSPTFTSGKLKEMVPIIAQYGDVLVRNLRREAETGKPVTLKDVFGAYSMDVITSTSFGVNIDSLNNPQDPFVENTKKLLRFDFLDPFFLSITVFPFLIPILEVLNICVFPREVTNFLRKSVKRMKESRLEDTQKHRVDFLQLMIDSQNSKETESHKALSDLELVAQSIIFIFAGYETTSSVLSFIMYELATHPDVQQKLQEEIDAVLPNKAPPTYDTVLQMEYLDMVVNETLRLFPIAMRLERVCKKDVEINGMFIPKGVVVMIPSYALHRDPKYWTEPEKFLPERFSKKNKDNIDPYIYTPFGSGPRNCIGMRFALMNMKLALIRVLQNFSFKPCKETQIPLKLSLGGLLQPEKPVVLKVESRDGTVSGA
Data set [2] addresses T1, Gonadotropin-releasing hormone receptor. The data set is described as follows: Displacement of [125I]tyr5,D-Leu6,NMeLeu7-GnRH from human cloned GnRH receptor expressed in RBL cells. The class given is cell-based. (In a radioligand displacement assay an active substance lowers the binding of a labelled ligand.)
In another data set the target is CYP3A4 (Homo sapiens, UniProt P08684). Briefly: Inhibition of recombinant CYP3A4 at 200 uM by microtiter plate-based fluorimetric assay. The class given is ADME.
Chain of CYP3A4 (P08684 whole entry): as above
Data set [3] has as its target T1, Gonadotropin-releasing hormone receptor. The data set is described as follows: Antagonist activity at human GnRH receptor expressed in RBL cells assessed as inhibition of GnRH-stimulated [3H]inositol phosphate hydrolysis by whole cell assay. The class given is functional, cell-based.
The nature of data set [4]: Permeability from apical to basolateral side of human Caco-2 cell membrane. The class given is ADME, cell-based. For orientation: Caco-2 monolayers are a common model of the intestinal barrier.
Data set [5] is described as follows: Oral bioavailability in Sprague-Dawley rat at 10 mg/kg. The conditions noted are these: in vivo. The class given is ADME, organism-based.
Data set [6] can be described thus: Clearance in Sprague-Dawley rat at 2.5 mg/kg, iv. The class given is ADME, organism-based. Also noted: dose 2.5 mg/kg, route intravenous. To be noted: in vivo.
Data set [7] can be described thus: Half life in Sprague-Dawley rat at 2.5 mg/kg, iv. The class given is ADME, organism-based. Also noted: dose 2.5 mg/kg, route intravenous. The conditions noted are these: in vivo.

pIC50, pKi: −log10 of the molar value.

In general, pKi refers to the Ki on a negative log10 scale, so that one unit is a factor of ten. The low end stands for a large Ki, the high end for a small Ki. One may read the pIC50 as −log10 of the IC50, conventionally taken in molar units. Molecule `N[C@@H](Cn1c(=O)c(-c2cccc(OCCCCCC(=O)O)c2F)cn(Cc2c(F)cccc2C(F)(F)F)c1=O)c1ccccc1` gave a pKi in [1] of 7.48. Moreover, the pIC50 at Cytochrome P450 3A4 is 4.60.
In data set [2], `CN[C@@H](Cn1c(=O)c(-c2cccc(OCCC(C)(C)CC(=O)O)c2F)c(C)n(Cc2c(F)cccc2C(F)(F)F)c1=O)c1ccccc1` gave a pKi of 7.54. Also, at Cytochrome P450 3A4, the pIC50 is 4.66.
For orientation: inhibition means how much of the control response was suppressed. `Cc1c(-c2cccc(OCC(=O)O)c2F)c(=O)n(C[C@H](N)c2ccccc2)c(=O)n1Cc1c(F)cccc1C(F)(F)F`: in data set [2], the negative-log Ki (pKi) is 7.28. Further, the inhibition at 200 µM at CYP3A4 came to 16%.
In turn, `Cc1c(-c2cccc(OCCCC(=O)O)c2)c(=O)n(C[C@H](N)c2ccccc2)c(=O)n1Cc1c(F)cccc1C(F)(F)F` gave a pKi in data set [2] of 8.12. In data set [3], the negative-log IC50 (pIC50) was 7.64.
In data set [1], `N[C@@H](Cn1c(=O)c(-c2cccc(OCCCCC(=O)O)c2F)cn(Cc2c(F)cccc2C(F)(F)F)c1=O)c1ccccc1` had a pKi of 7.47. For the same molecule, the pIC50 on Cytochrome P450 3A4 is 4.44.
For the molecule `Cc1c(-c2cccc(OCCCC(=O)O)c2F)c(=O)n(C[C@H](N)c2ccccc2)c(=O)n1Cc1c(F)cccc1C(F)(F)F`, in data set [2], the pKi was 8.33. Besides, the inhibition at 200 µM on CYP3A4 came out at 21%.
The Papp A→B is how fast a substance crosses the layer from the apical side. Read a high Papp A→B as ready permeation. A word on the bioavailability: it is dose-corrected exposure relative to a reference, in per cent. High values mean much systemic uptake, low ones little systemic uptake. By clearance is commonly meant a measure of how efficiently the substance is removed, as volume per time. High values mean a high capacity for elimination, low ones a low capacity for elimination. By half-life is commonly meant how long it takes for the measured level to halve. Read a high half-life as slow loss. With `Cc1c(-c2cccc(OCCCCC(=O)O)c2)c(=O)n(C[C@H](N)c2ccccc2)c(=O)n1Cc1c(F)cccc1C(F)(F)F`, the pKi in [1] is 8.39. The pIC50 in data set [3] was 7.59; on Cytochrome P450 3A4, 4.66. Also, the apical-to-basolateral permeability (Papp A→B) in data set [4] is 0.1 ×10⁻⁶ cm/s. In data set [5], this molecule displayed a bioavailability of 1.1%. Moreover, the clearance in data set [6] is 7.5 mL/min/kg. Also, the half-life in data set [7] was 10 h.
`CN[C@@H](Cn1c(=O)c(-c2cccc(OCCCN(C)CC(=O)O)c2F)c(C)n(Cc2c(F)cccc2C(F)(F)F)c1=O)c1ccccc1` had a pKi in data set [2] of 7.46.
As to `CN[C@@H](Cn1c(=O)c(-c2cccc(OCCCCC(=O)O)c2F)c(C)n(Cc2c(F)cccc2C(F)(F)F)c1=O)c1ccccc1`, in data set [1], the negative-log Ki (pKi) is 8.92. The pIC50 at Cytochrome P450 3A4 is 4.89. This molecule registered a Papp A→B in data set [4] of 1.2 ×10⁻⁶ cm/s. Further, the bioavailability in data set [5] turned out to be 13%. For the same molecule, in data set [6], the clearance turned out to be 50 mL/min/kg. Further, in data set [7], the half-life is 5.1 h.
In [2], `CN[C@@H](Cn1c(=O)c(-c2cccc(OCCN(C)CC(=O)O)c2F)c(C)n(Cc2c(F)cccc2C(F)(F)F)c1=O)c1ccccc1` gave a pKi of 7.01.
In the case of `Cc1c(-c2cccc(OCCC(=O)O)c2F)c(=O)n(C[C@H](N)c2ccccc2)c(=O)n1Cc1c(F)cccc1C(F)(F)F`, the pKi in data set [2] is 8.00.
As for `Cc1c(-c2cccc(OCCCCCC(=O)O)c2)c(=O)n(C[C@H](N)c2ccccc2)c(=O)n1Cc1c(F)cccc1C(F)(F)F`, the pKi in data set [2] was 8.96; in data set [1], 8.68. Further, the pIC50 in data set [3] is 8.55. The molecule also had a bioavailability in [5] of 4.8%. In [6], this molecule registered a clearance of 36 mL/min/kg. For the same molecule, the half-life in [7] was 4.9 h.
On to `Cc1c(-c2cccc(OCCCCC(=O)O)c2F)c(=O)n(C[C@H](N)c2ccccc2)c(=O)n1Cc1c(F)cccc1C(F)(F)F`, for which the pKi in data set [2] was 9.00; in [1], 8.92. Moreover, the pIC50 in data set [3] was 8.59. The molecule also gave a Papp A→B in data set [4] of 0.1 ×10⁻⁶ cm/s. Moreover, the bioavailability in data set [5] came to 6.6%. For the same molecule, the clearance in data set [6] is 14 mL/min/kg. This molecule showed a half-life in data set [7] of 6.6 h.
Take `CN[C@@H](Cn1c(=O)c(-c2cccc(OCCCNCC(=O)O)c2F)c(C)n(Cc2c(F)cccc2C(F)(F)F)c1=O)c1ccccc1`: the pKi in [2] was 6.81. Besides, the pIC50 on Cytochrome P450 3A4 was 4.48.
On to `CN[C@@H](Cn1c(=O)c(-c2cccc(OCCNCC(=O)O)c2F)c(C)n(Cc2c(F)cccc2C(F)(F)F)c1=O)c1ccccc1`, for which, in [2], the pKi is 7.57.
For `Cc1c(-c2cccc(OCCCCCC(=O)O)c2F)c(=O)n(C[C@H](N)c2ccccc2)c(=O)n1Cc1c(F)cccc1C(F)(F)F`, the pKi in data set [2] is 8.92; in data set [1] it was 8.89. In addition, the pIC50 was 9.22 in [3] and 5.09 at Cytochrome P450 3A4. The same molecule displayed a bioavailability in data set [5] of 3.7%. The molecule further registered a clearance in [6] of 21 mL/min/kg. Besides, the half-life in [7] was 2.9 h.
Take `CN[C@@H](Cn1c(=O)c(-c2cccc(OCCOCC(=O)O)c2F)c(C)n(Cc2c(F)cccc2C(F)(F)F)c1=O)c1ccccc1`: the pKi in data set [2] is 8.03. In addition, the negative logarithm of the IC50 (pIC50) at Cytochrome P450 3A4 is 5.00.
`Cc1c(-c2cccc(OCCCCC(=O)O)c2F)c(=O)n(C[C@@H](c2ccccc2)N(C)C)c(=O)n1Cc1c(F)cccc1C(F)(F)F` gave a pKi in [1] of 7.82. The pIC50 on Cytochrome P450 3A4 is 4.38. The molecule also displayed a Papp A→B in [4] of 17 ×10⁻⁶ cm/s.
With `CN[C@@H](Cn1c(=O)c(-c2cccc(OCCCOCC(=O)O)c2F)c(C)n(Cc2c(F)cccc2C(F)(F)F)c1=O)c1ccccc1`, in data set [2], the pKi is 7.42. Also, the pIC50 at Cytochrome P450 3A4 was 4.66.

Source of the values: ChEMBL document CHEMBL1156583, “Zwitterionic uracil derivatives as potent GnRH receptor antagonists with improved pharmaceutical properties” (Bioorg Med Chem Lett, 2008).
